Results reported in patent US10231954B2, “Neurodegenerative therapies” (LYTIX BIOPHARMA AS, priority 2014, dated 2019).

What was measured:
Format in all cases: biochemical
MKK1 = MKK1 (Homo sapiens, UniProt Q02750); experiment: Kinase profiling MKK1
Source text: (§1) Any value less that 25 is considered to be highly significant inhibition.

MKK2 = MKK2 (Homo sapiens, UniProt P36507); experiment: Kinase profiling MKK2; settings: 100 micromolar inhibitor concentration; 100 is no change
Source text: as §1

p38a MAPK = p38a MAPK (Homo sapiens, UniProt Q16539); experiment: Kinase profiling p38a MAPK
Source text: as §1

p38b MAPK = p38b MAPK (Homo sapiens, UniProt Q15759); experiment: Kinase profiling p38b MAPK; settings: 100 micromolar inhibitor concentration; 100 is no change
Source text: as §1

PKA = PKA (Homo sapiens, UniProt P17612); experiment: Kinase profiling PKA
Source text: as §1

ROCK 2 = ROCK 2 (Homo sapiens, UniProt O75116); experiment: Kinase profiling ROCK 2
Source text: as §1

PRK2 = PRK2 (Homo sapiens, UniProt Q16513); experiment: Kinase profiling PRK2
Source text: as §1

PKCa = PKCa (Homo sapiens, UniProt P17252); experiment: Kinase profiling PKCa
Source text: as §1

PKCz = target: T1, PKCz (Homo sapiens, UniProt Q05513); experiment: Kinase profiling PKCz; settings: 100 micromolar inhibitor concentration; 100 is no change
T1 sequence (Q05513 1-592): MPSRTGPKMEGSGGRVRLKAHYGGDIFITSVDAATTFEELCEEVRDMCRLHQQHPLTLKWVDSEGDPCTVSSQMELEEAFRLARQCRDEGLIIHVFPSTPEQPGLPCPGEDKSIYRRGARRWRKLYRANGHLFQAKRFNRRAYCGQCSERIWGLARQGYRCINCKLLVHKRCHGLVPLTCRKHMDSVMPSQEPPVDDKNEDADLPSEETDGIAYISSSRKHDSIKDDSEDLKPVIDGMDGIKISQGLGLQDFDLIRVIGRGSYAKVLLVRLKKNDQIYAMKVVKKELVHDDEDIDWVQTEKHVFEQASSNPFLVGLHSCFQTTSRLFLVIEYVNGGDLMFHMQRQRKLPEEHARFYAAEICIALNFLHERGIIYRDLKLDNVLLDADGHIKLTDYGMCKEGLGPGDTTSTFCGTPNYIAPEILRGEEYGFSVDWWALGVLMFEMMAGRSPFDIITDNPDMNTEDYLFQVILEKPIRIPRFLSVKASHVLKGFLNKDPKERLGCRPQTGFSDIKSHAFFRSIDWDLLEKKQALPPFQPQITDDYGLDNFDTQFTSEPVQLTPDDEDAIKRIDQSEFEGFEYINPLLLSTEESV
Source text: as §1

CAMKKb = CAMKKb (Homo sapiens, UniProt Q96RR4); experiment: Kinase profiling CAMKKb
Source text: as §1

SmMLCK = SmMLCK (Homo sapiens, UniProt Q15746); experiment: Kinase profiling SmMLCK
MARK3 = MARK3 (Homo sapiens, UniProt P27448); experiment: Kinase profiling MARK3
Source text: as §1

TBK1 = target: T2, TBK1 (Homo sapiens, UniProt Q9UHD2); experiment: Kinase profiling TBK1
T2 sequence (Q9UHD2 1-729): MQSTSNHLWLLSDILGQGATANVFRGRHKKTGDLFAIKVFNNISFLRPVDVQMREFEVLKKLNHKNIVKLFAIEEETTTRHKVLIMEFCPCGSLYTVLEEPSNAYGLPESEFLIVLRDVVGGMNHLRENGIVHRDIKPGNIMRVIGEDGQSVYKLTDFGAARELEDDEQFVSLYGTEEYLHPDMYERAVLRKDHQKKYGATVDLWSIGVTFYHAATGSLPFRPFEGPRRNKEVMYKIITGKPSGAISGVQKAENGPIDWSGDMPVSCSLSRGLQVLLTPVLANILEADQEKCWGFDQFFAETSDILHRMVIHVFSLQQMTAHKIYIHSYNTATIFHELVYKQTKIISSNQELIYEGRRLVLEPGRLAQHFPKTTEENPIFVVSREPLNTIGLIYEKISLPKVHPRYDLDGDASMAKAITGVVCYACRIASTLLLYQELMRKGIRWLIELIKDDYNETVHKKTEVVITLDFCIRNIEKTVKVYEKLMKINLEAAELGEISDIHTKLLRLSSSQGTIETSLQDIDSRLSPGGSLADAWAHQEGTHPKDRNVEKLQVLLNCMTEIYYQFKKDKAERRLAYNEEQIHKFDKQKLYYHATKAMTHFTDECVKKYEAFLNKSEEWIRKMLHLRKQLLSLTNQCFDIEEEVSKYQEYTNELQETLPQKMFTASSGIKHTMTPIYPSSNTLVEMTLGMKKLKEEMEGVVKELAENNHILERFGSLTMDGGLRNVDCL
Source text: as §1

PAK4 = PAK4 (Homo sapiens, UniProt O96013); experiment: Kinase profiling PAK4
Source text: as §1

Src = Src (Homo sapiens, UniProt P12931); experiment: Kinase profiling Src
Source text: as §1

Lck = Lck (Homo sapiens, UniProt P06239); experiment: Kinase profiling Lck
Source text: as §1

SYK = SYK (Homo sapiens, UniProt P43405); experiment: Kinase profiling SYK
Source text: as §1

IGF-1R = IGF-1R (Homo sapiens, UniProt P08069); experiment: Kinase profiling IGF-1R
Source text: as §1

VEG-FR = experiment: Kinase profiling VEG-FR
Source text: as §1

[1] = 100 micromolar inhibitor concentration, 100 is no change
[2] = 100 micromolar inhibitor, 100 = no change

CAMKKb, sequence (Q96RR4 whole entry, species assumed): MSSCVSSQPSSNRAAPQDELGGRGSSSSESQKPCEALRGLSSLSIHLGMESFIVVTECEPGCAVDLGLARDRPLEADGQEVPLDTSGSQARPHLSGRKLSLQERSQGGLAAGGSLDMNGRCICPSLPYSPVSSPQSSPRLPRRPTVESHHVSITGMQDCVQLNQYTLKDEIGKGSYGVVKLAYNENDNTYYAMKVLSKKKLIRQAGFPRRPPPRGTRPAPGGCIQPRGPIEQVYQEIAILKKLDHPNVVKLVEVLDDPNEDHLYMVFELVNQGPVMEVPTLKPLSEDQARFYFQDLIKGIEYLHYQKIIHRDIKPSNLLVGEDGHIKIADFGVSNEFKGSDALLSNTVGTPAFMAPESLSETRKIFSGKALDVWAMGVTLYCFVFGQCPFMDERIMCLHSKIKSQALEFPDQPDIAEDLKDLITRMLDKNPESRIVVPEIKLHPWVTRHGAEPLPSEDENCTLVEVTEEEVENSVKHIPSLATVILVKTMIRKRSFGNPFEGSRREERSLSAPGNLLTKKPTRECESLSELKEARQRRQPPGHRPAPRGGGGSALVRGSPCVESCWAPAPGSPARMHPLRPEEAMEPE
MKK2, sequence (P36507 whole entry, species assumed): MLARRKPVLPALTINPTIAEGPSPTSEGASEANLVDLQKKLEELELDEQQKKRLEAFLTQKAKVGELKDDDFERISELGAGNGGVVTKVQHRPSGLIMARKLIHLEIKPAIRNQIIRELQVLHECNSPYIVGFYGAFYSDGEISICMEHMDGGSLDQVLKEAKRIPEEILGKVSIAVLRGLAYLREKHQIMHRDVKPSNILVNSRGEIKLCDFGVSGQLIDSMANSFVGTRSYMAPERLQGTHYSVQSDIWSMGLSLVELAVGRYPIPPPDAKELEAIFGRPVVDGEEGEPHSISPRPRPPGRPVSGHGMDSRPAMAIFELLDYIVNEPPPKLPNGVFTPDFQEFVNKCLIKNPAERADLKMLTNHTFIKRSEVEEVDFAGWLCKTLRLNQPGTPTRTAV
p38a MAPK, sequence (Q16539 whole entry): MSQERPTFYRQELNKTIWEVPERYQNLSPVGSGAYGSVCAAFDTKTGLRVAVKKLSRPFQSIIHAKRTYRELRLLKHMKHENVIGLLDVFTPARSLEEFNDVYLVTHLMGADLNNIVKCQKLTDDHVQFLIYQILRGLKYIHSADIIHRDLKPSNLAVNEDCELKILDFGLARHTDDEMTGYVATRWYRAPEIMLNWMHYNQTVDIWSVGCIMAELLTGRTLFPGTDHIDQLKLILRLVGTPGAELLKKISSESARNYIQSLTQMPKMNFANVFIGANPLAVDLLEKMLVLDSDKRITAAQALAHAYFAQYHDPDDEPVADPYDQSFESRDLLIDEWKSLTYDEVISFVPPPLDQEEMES
MARK3, sequence (P27448 whole entry, species assumed): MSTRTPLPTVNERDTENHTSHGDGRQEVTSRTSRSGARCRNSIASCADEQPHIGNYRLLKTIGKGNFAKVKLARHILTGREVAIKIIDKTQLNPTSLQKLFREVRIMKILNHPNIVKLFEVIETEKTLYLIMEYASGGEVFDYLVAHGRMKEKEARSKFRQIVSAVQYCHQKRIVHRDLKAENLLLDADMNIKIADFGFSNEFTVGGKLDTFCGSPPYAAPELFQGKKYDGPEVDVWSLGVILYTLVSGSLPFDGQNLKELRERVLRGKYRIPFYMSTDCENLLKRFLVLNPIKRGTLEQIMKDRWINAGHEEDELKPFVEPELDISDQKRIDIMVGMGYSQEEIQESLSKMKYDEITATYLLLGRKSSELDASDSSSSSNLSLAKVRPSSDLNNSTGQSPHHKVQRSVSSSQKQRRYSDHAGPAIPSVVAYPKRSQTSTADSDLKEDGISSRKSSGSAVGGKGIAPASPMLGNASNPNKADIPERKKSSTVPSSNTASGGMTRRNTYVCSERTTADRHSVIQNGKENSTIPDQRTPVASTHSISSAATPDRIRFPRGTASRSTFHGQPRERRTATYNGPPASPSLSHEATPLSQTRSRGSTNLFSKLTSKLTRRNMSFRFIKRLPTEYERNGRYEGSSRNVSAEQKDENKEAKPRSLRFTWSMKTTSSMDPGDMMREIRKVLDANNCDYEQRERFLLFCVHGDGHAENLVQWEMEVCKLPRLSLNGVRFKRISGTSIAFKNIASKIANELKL
SmMLCK, sequence (Q15746 923-1914): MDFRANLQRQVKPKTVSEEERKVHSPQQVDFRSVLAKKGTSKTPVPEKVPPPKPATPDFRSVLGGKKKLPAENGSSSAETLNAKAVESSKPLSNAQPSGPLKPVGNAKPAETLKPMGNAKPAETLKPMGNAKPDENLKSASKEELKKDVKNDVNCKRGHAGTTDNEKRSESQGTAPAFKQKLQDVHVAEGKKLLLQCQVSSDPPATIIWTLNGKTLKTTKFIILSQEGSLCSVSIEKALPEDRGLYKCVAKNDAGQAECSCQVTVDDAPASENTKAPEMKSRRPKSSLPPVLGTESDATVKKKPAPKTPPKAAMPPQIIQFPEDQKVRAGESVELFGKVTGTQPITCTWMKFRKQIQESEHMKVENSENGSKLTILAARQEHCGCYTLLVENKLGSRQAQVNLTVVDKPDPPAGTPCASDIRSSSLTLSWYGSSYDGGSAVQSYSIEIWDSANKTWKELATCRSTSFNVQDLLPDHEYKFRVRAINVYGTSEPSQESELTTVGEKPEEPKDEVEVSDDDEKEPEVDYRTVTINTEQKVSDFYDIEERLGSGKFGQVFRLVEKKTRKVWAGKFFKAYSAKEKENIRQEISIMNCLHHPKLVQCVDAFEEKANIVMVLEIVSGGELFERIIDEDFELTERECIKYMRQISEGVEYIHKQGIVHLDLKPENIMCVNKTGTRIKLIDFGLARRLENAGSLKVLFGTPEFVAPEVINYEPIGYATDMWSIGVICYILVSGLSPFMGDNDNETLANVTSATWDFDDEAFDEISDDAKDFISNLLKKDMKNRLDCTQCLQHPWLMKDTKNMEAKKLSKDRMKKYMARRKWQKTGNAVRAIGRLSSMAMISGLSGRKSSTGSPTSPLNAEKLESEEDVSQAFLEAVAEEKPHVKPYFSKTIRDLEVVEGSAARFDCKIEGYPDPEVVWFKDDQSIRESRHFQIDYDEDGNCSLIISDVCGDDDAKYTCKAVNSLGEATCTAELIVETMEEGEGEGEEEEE
Lck, sequence (P06239 whole entry, species assumed): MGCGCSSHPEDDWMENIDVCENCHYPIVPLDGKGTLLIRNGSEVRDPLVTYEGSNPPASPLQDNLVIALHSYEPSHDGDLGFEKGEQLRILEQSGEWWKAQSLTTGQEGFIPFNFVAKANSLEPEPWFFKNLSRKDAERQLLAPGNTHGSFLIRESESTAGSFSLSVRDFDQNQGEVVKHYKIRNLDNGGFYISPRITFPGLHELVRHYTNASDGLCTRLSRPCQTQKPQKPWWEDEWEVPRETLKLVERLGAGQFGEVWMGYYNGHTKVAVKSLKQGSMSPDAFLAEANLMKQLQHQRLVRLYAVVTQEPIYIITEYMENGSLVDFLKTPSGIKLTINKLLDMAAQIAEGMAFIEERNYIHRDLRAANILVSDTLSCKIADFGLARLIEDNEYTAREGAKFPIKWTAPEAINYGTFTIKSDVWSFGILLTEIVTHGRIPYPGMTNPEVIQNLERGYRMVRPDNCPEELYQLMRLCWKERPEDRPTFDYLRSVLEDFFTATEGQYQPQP
p38b MAPK, sequence (Q15759 whole entry): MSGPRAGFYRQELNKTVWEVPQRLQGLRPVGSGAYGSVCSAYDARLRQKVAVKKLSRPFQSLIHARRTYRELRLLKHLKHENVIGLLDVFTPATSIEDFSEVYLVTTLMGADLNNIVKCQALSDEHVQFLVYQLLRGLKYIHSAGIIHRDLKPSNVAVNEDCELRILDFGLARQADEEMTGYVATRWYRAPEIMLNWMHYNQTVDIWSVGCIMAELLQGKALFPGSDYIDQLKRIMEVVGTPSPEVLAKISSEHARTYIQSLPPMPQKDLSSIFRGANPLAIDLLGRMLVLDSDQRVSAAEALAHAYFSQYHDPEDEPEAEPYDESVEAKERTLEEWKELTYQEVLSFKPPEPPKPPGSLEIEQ

Row | SMILES | residual kinase activity, MKK1 (MKK1; [1]) | residual kinase activity, MKK2 (MKK2) | residual kinase activity, p38a MAPK (p38a MAPK; [1]) | residual kinase activity, p38b MAPK (p38b MAPK) | residual kinase activity, PKA (PKA; [1]) | residual kinase activity, ROCK 2 (ROCK 2; [1]) | residual kinase activity, PRK2 (PRK2; [1]) | residual kinase activity, PKCa (PKCa; [1]) | residual kinase activity, PKCz (PKCz) | further results
1 | CC(=O)Nc1cccc(C(=O)Nc2nc3ccc(O)cc3s2)c1 [Compound 03-58] | 52 | 86 | 81 | 75 | 90 | 10 | 36 | 96 | 84 | 
2 | CC(=O)NC(C)C(=O)Nc1nc2ccc(C(F)(F)F)cc2s1 (stereo not shown) [Compound 03-80] | 80 | 75 | 79 | 77 | 104 | 80 | 79 | 125 | 75 | 
3 | COc1ccc2sc(NC(=O)c3cccc(C(N)=O)c3)nc2c1 [Compound 03-113] | 119 |  | 113 |  | 101 | 68 | 98 | 103 |  | residual kinase activity, CAMKKb (CAMKKb; [1]): 70; residual kinase activity, SmMLCK (SmMLCK; [1]): 83; residual kinase activity, MARK3 (MARK3; [1]): 101; residual kinase activity, TBK1 (TBK1; [1]): 98; residual kinase activity, PAK4 (PAK4; [1]): 109; residual kinase activity, Src (Src; [1]): 79; residual kinase activity, Lck (Lck; [1]): 111; residual kinase activity, SYK (SYK; [1]): 108; residual kinase activity, IGF-1R (IGF-1R; [1]): 104; residual kinase activity, VEG-FR (VEG-FR; [1]): 86
4 | CC(=O)Nc1ccccc1C(=O)Nc1nc2ccc(O)cc2s1 [Compound 08-39] | 106 | 78 | 96 | 96 | 88 | 22 | 42 | 43 | 38 | 
5 | COc1ccc2nc(C(=O)Nc3ccccc3)sc2c1 [Compound 13-03] |  |  |  |  |  |  |  |  |  | residual kinase activity, MKK1 (MKK1; [2]): 70; residual kinase activity, p38a MAPK (p38a MAPK; [2]): 103; residual kinase activity, PKA (PKA; [2]): 97; residual kinase activity, ROCK 2 (ROCK 2; [2]): 70; residual kinase activity, PRK2 (PRK2; [2]): 105; residual kinase activity, PKCa (PKCa; [2]): 119; residual kinase activity, CAMKKb (CAMKKb; [2]): 91; residual kinase activity, SmMLCK (SmMLCK; [2]): 85; residual kinase activity, MARK3 (MARK3; [2]): 92; residual kinase activity, TBK1 (TBK1; [2]): 98; residual kinase activity, PAK4 (PAK4; [2]): 58; residual kinase activity, Src (Src; [2]): 100; residual kinase activity, Lck (Lck; [2]): 89; residual kinase activity, SYK (SYK; [2]): 37; residual kinase activity, IGF-1R (IGF-1R; [2]): 104; residual kinase activity, VEG-FR (VEG-FR; [2]): 87
6 | CC(=O)Nc1nc2ccc([N+](=O)[O-])cc2s1 [Compound 13-10] |  |  |  |  |  |  |  |  |  | remaining activity at 100 µM (MKK1; 100 micromolar inhibitor concentration, 100 is no change, read-out: residual kinase activity, MKK1): 62%; remaining activity at 100 µM (p38a MAPK; 100 micromolar inhibitor concentration, 100 is no change, read-out: residual kinase activity, p38a MAPK): 103%; remaining activity at 100 µM (PKA; 100 micromolar inhibitor concentration, 100 is no change, read-out: residual kinase activity, PKA): 99%; remaining activity at 100 µM (ROCK 2; 100 micromolar inhibitor concentration, 100 is no change, read-out: residual kinase activity, ROCK 2): 96%; remaining activity at 100 µM (PRK2; 100 micromolar inhibitor concentration, 100 is no change, read-out: residual kinase activity, PRK2): 93%; remaining activity at 100 µM (PKCa; 100 micromolar inhibitor concentration, 100 is no change, read-out: residual kinase activity, PKCa): 93%; remaining activity at 100 µM (CAMKKb; 100 micromolar inhibitor concentration, 100 is no change, read-out: residual kinase activity, CAMKKb): 73%; remaining activity at 100 µM (SmMLCK; 100 micromolar inhibitor concentration, 100 is no change, read-out: residual kinase activity, SmMLCK): 58%; remaining activity at 100 µM (MARK3; 100 micromolar inhibitor concentration, 100 is no change, read-out: residual kinase activity, MARK3): 85%; remaining activity at 100 µM (TBK1; 100 micromolar inhibitor concentration, 100 is no change, read-out: residual kinase activity, TBK1): 89%; remaining activity at 100 µM (PAK4; 100 micromolar inhibitor concentration, 100 is no change, read-out: residual kinase activity, PAK4): 86%; remaining activity at 100 µM (Src; 100 micromolar inhibitor concentration, 100 is no change, read-out: residual kinase activity, Src): 85%; remaining activity at 100 µM (Lck; 100 micromolar inhibitor concentration, 100 is no change, read-out: residual kinase activity, Lck): 79%; remaining activity at 100 µM (SYK; 100 micromolar inhibitor concentration, 100 is no change, read-out: residual kinase activity, SYK): 97%; remaining activity at 100 µM (IGF-1R; 100 micromolar inhibitor concentration, 100 is no change, read-out: residual kinase activity, IGF-1R): 91%; residual kinase activity, VEG-FR (VEG-FR; [1]): 5
7 | COc1cccc(NC(=O)Nc2nc3cc(O)ccc3s2)c1 [Compound 13-62] |  |  |  |  |  |  |  |  |  | residual kinase activity, MKK1 (MKK1; [2]): 15; residual kinase activity, p38a MAPK (p38a MAPK; [2]): 21; residual kinase activity, PKA (PKA; [2]): 104; residual kinase activity, ROCK 2 (ROCK 2; [2]): 11; residual kinase activity, PRK2 (PRK2; [2]): 40; residual kinase activity, PKCa (PKCa; [2]): 102; residual kinase activity, CAMKKb (CAMKKb; [2]): 25; residual kinase activity, SmMLCK (SmMLCK; [2]): 5; residual kinase activity, MARK3 (MARK3; [2]): 12; residual kinase activity, TBK1 (TBK1; [2]): 48; residual kinase activity, PAK4 (PAK4; [2]): 22; residual kinase activity, Src (Src; [2]): 7; residual kinase activity, Lck (Lck; [2]): 11; residual kinase activity, SYK (SYK; [2]): 59; residual kinase activity, IGF-1R (IGF-1R; [2]): 62; residual kinase activity, VEG-FR (VEG-FR; [2]): 7
8 | COc1ccc2sc(NC(=O)c3ccc(NC(C)=O)cc3)nc2c1 [MS:LY-2-77] | 95 | 95 | 109 | 110 | 102 | 96 | 92 | 97 | 107 | 
9 | COc1ccc2sc(NC(=O)c3cccc(NC(C)=O)c3)nc2c1 [MS:LY-2-85] | 83 | 80 | 89 | 92 | 98 | 29 | 66 | 63 | 101 | 
10 | CC(=O)Nc1ccc(C(=O)Nc2nc3cc(O)ccc3s2)cc1 [MS:LY-2-87] | 69 | 73 | 73 | 82 | 93 | 38 | 67 | 59 | 83 | 
